# Experimental data as given in patent US7163946B2 (Ligand Pharmaceuticals Incorporated, priority 2002, dated 2007).
# Molecular target: T1, hPR (Homo sapiens, UniProt P06401)
# T1 sequence (P06401 1-933): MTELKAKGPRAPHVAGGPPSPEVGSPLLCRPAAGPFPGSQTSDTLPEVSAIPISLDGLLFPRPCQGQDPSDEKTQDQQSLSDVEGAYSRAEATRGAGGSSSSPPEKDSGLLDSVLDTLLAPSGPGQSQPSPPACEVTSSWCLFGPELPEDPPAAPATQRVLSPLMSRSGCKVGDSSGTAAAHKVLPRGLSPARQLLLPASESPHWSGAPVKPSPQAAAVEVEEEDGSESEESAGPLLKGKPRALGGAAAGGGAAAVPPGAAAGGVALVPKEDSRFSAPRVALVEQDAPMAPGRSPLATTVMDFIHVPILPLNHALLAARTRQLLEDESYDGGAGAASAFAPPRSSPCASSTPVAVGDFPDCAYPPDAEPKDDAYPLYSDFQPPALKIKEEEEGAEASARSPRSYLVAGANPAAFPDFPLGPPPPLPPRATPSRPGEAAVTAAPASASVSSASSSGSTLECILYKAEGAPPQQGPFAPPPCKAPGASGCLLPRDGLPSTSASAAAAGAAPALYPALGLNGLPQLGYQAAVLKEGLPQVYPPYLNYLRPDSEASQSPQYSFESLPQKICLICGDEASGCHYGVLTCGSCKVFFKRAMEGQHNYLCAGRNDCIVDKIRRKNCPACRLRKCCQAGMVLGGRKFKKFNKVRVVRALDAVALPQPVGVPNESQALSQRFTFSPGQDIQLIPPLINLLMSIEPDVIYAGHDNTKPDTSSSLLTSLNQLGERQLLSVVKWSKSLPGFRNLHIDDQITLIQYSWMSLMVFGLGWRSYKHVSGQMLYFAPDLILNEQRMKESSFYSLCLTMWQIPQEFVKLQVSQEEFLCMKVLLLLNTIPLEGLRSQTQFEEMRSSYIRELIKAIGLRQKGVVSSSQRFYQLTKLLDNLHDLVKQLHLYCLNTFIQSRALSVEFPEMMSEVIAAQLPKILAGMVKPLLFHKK
# Experiment: hPR cotransfection assay in CV-1 cells, agonist mode
# Type: cell-based
# Settings: Tables 3 and 4, values without footnote; read-out: hPR agonist potencies (EC50 in nM) in the cotransfection assay
row,EC50,SMILES
1,3.85 nM,"CC1=CC(C)(C)Nc2ccc3c(c21)C(c1ccc2c(c1)OCO2)Oc1c(F)cc(F)cc1-3 (racemic) [Compound 35, (±)-7,9-difluoro-5-(1,3-benzodioxol-5-yl)-1,2-dihydro-2,2,4-trimethyl-5H-chromeno[3,4-f]quinoline]"
2,4.96 nM,"CC1=CC(C)(C)Nc2ccc3c(c21)C(c1ccc(Br)cc1)Oc1c(F)cc(F)cc1-3 (racemic) [Compound 36, (±)-7,9-difluoro-5-(4-bromophenyl)-1,2-dihydro-2,2,4-trimethyl-5H-chromeno[3,4-f]quinoline]"
3,6.66 nM,"CC1=CC(C)(C)Nc2ccc3c(c21)C(c1cccc(F)c1)Oc1c(F)cc(F)cc1-3 (racemic) [Compound 40, (±)-7,9-difluoro-5-(3-fluorophenyl)-1,2-dihydro-2,2,4-trimethyl-5H-chromeno[3,4-f]quinoline]"
4,3.65 nM,"CC1=CC(C)(C)Nc2ccc3c(c21)C(c1cccc(Br)c1)Oc1c(F)cc(F)cc1-3 (racemic) [Compound 42, (±)-7,9-difluoro-5-(3-bromophenyl)-1,2-dihydro-2,2,4-trimethyl-5H-chromeno[3,4-f]quinoline]"
5,5.1 nM,"CC1=CC(C)(C)Nc2ccc3c(c21)C(c1ccc(Cl)cc1)Oc1c(F)cc(F)cc1-3 (racemic) [Compound 43, (±)-7,9-difluoro-5-(4-chlorophenyl)-1,2-dihydro-2,2,4-trimethyl-5H-chromeno[3,4-f]quinoline]"
6,6.93 nM,"CCC1Oc2c(F)cc(F)cc2-c2ccc3c(c21)C(C)=CC(C)(C)N3 (racemic) [Compound 46, (±)-7,9-difluoro-5-ethyl-1,2-dihydro-2,2,4-trimethyl-5H-chromeno[3,4-f]quinoline]"
7,15 nM,"CCCCC1Oc2c(F)cc(F)cc2-c2ccc3c(c21)C(C)=CC(C)(C)N3 (racemic) [Compound 52, (±)-7,9-difluoro-5-butyl-1,2-dihydro-2,2,4-trimethyl-5H-chromeno[3,4-f]quinoline]"
8,3.6 nM,"C=CCC1Oc2c(F)cc(F)cc2-c2ccc3c(c21)C(C)=CC(C)(C)N3 (racemic) [Compound 55, (±)-7,9-difluoro-5-allyl-1,2-dihydro-2,2,4-trimethyl-5H-chromeno[3,4-f]quinoline]"
9,1.6 nM,"CC1=CC(C)(C)Nc2ccc3c(c21)C(c1cccc(C(F)(F)F)c1)Oc1c(F)cc(F)cc1-3 (racemic) [Compound 56, (±)-7,9-difluoro-5-[3-(trifluoromethyl)phenyl]-1,2-dihydro-2,2,4-trimethyl-5H-chromeno[3,4-f]quinoline]"
10,1.92 nM,"CC1=CC(C)(C)Nc2ccc3c(c21)/C(=C/c1ccccc1Cl)Oc1c(F)cc(F)cc1-3 [Compound 13, 7,9-difluoro-5(Z)-(2-chlorobenzylidene)-1,2-dihydro-2,2,4-trimethyl-5H-chromeno[3,4-f]quinoline]"
11,3.7 nM,"CC1=CC(C)(C)Nc2ccc3c(c21)/C(=C/c1ccc(F)cc1)Oc1c(F)cc(F)cc1-3 [Compound 16, 7,9-difluoro-5(Z)-(4-fluorobenzylidene)-1,2-dihydro-2,2,4-trimethyl-5H-chromeno[3,4-f]quinoline]"
12,8.2 nM,"CC1=CC(C)(C)Nc2ccc3c(c21)/C(=C/c1cccc(F)c1C)Oc1c(F)cc(F)cc1-3 [Compound 21, 7,9-difluoro-5(Z)-(2-methyl-3-fluorobenzylidene)-1,2-dihydro-2,2,4-trimethyl-5H-chromeno[3,4-f]quinoline]"
13,1.66 nM,"CC1=CC(C)(C)Nc2ccc3c(c21)/C(=C/c1ccccc1C)Oc1c(F)cc(F)cc1-3 [Compound 81, 7,9-difluoro-5(Z)-(2-methylbenzylidene)-1,2-dihydro-2,2,4-trimethyl-5H-chromeno[3,4-f]quinoline]"
14,7.4 nM,"CC1=CC(C)(C)Nc2ccc3c(c21)C(c1cccc(C(F)(F)F)c1)Oc1ccc(Cl)cc1-3 (stereo not drawn) [Formula I X=9-Cl 3-CF3-Ph, reference compound]"

# Same assay, conditions: hPR agonist potencies (EC50 in nM) in the cotransfection assay, Tables 3 and 4, values without footnote
row,SMILES,EC50
1,"CC1=CC(C)(C)Nc2ccc3c(c21)C(C)Oc1c(F)cc(F)cc1-3 (racemic) [Compound 44, (±)-7,9-difluoro-1,2-dihydro-2,2,4,5-tetramethyl-5H-chromeno[3,4-f]quinoline]",1.4 nM
